Laboratory results as given in PubChem BioAssay (NCI).
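96-well plates; 48 h exposure; 5 concentrations. Endpoints by linear interpolation between flanking doses. Not reached: highest tested concentration assigned. GI50 is the concentration that inhibits growth by half. TGI: total growth inhibition.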

Assays:
Assay in all cases: NCI tumour cell line growth inhibition, 48 h
[1] = test system: HOP-62 NSCLC
[2] = test system: SK-MEL-5 melanoma
[3] = test system: HCC-2998 colon
[4] = test system: TK-10 renal
[5] = test system: OVCAR-5 ovarian
[6] = test system: SK-MEL-2 melanoma
[7] = test system: CCRF-CEM leukemia
[8] = test system: SF-539 CNS
[9] = test system: OVCAR-4 ovarian
[10] = test system: A498 renal

Row | SMILES | GI50 [1] [µM] | TGI [1] [µM] | GI50 [2] [µM] | TGI [2] [µM] | GI50 [3] [µM] | TGI [3] [µM] | GI50 [4] [µM] | TGI [4] [µM] | GI50 [5] [µM] | TGI [5] [µM] | GI50 [6] [µM] | TGI [6] [µM] | GI50 [7] [µM] | TGI [7] [µM] | GI50 [8] [µM] | TGI [8] [µM] | GI50 [9] [µM] | TGI [9] [µM] | GI50 [10] [µM] | TGI [10] [µM]
1 | CCCN1CCC(c2ccc(Nc3nc(Nc4cc(F)ccc4C(N)=O)c4cc[nH]c4n3)c(OC)c2)CC1 | 2.71 | 5.84 | 3.41 | 6.63 | 2.53 | 5.5 | 1.07 | 6.33 | 2.78 | 9.48 | 1.86 | 5.78 | 1.16 | 20.3 | 2.95 | 6.76 | 4.1 | 13.1 | 1.17 | 5.07
2 | CCOC(=O)c1cccnc1C(OC(C)=O)OC(C)=O | – | > 100 | – | > 100 | – | > 100 | – | > 100 | – | > 100 | – | > 100 | – | > 100 | – | > 100 | – | > 100 | – | > 100
3 | CN(C)c1ccc(N=C2C=CC(=O)c3ccccc32)cc1 | 2.19 | 6.62 | 1.34 | 2.72 | 5.05 | 16.7 | 17 | 31 | 12.6 | 28.8 | 3.5 | 11 | 2.13 | 6.17 | 3.11 | 11.4 | 2.02 | 10.4 | 12 | 25.2
4 | C=CCc1c(O)c(C(=O)/C=C/c2ccccc2)c(OC)c2ccoc12 | 5.32 | 17.8 | 2.66 | 10.9 | 1.73 | 3.21 | 4.96 | 17.3 | 3.22 | 12.7 | 3.04 | 13.8 | 2.75 | > 100 | 1.71 | 3.93 | 2.89 | 12.8 | 1.74 | 9.4
5 | CCOC1CC2OC(=O)C1C=C2C(=O)OC (stereo not given) | – | > 100 | – | > 100 | – | > 100 | – | 84.1 | – | > 100 | – | 65.7 | – | 56.6 | – | 68.4 | – | 57.4 | – | > 100
6 | COc1cc(/C=C/C(=O)c2c(C)nc3ccccc3c2C)ccc1OCCCN1CCN(C(=O)c2ccco2)CC1 | 14.7 | 30 | 2.12 | 12.6 | 10.4 | 22.1 | 15.3 | 30 | 18.1 | 32 | 16.1 | 37.7 | 3 | 17.9 | 14.4 | 27.5 | 8.85 | > 100 | 4.14 | 17.7
7 | CN(C)c1ccc2nc(CC(O)(C(F)(F)F)C(F)(F)F)ccc2c1 | – | > 10 | – | > 10 | – | > 10 | – | > 10 | – | > 10 | – | > 10 | – | > 10 | – | > 10 | – | > 10 | – | > 10
8 | O=c1c(Cl)cc2nc3ccccc3sc-2c1Cl | – | 46.1 | – | 13.9 | – | 34.7 | – | 33.1 | – | 78.9 | – | 27.1 | – | 43.3 | – | 30.8 | – | 27.4 | – | 80.7
9 | O=C1NC(c2cccc(OCc3ccccc3)c2)Nc2ccccc21 (stereo not given) | – | 26.3 | – | 1.87 | – | 0.621 | – | > 75.7 | – | > 22.7 | – | 30 | – | 3.99 | – | 0.708 | – | > 100 | – | 4.68
10 | C/C(=N/N=C(N)N)c1ccc(NC(=O)Nc2ccc(/C(C)=N/N=C(N)N)cc2)cc1 | 21.8 | > 60.3 | 10.6 | 37.9 | 23.4 | 81.5 | 6.2 | 33.8 | 17.9 | 56.6 | 18.4 | 60.6 | 21.7 | 97.8 | 17.9 | 36.1 | 17.1 | 61.1 | 23.5 | 69.9
11 | CCn1ccc(NS(=O)(=O)c2ccc(N)cc2)nc1=O | > 100 | > 100 | > 100 | > 100 | > 100 | > 100 | > 100 | > 100 | > 100 | > 100 | > 100 | > 100 | > 100 | > 100 | > 100 | > 100 | > 100 | > 100 | > 100 | > 100
12 | Cn1cnc([N+](=O)[O-])c1Sc1nccc(=O)[nH]1 | – | > 100 | – | > 100 | – | > 100 | – | > 100 | – | > 100 | – | > 100 | – | > 100 | – | > 100 | – | > 100 | – | > 100
13 | CCOC(=O)C(=O)Nc1ccccc1C(C)C | – | > 100 | – | > 100 | – | > 100 | – | > 100 | – | > 100 | – | > 100 | – | > 100 | – | > 100 | – | > 100 | – | > 100
14 | COc1ccc2c(c1)C(=O)c1c-2c(Nc2cccc(C(C)=O)c2)nc2ccccc12 | 0.727 | 2.49 | 5.22 | 18.9 | 16.1 | 91.4 | 24.8 | 65 | 11.4 | 24.5 | 16.4 | 53.5 | > 100 | > 100 | 10.2 | 22.2 | 15.5 | > 100 | 3.09 | 15
15 | COCc1c(-c2ccc(NC(=O)Nc3cc(C(F)(F)F)ccc3F)c(F)c2)c2c(N)ncnn2c1CN1CCOCC1 | 2.05 | 7.1 | 2.49 | > 10 | 2.84 | 7.33 | 1.29 | 7.53 | 3.32 | > 10 | 1.07 | 2.58 | 1.95 | 7.96 | 0.283 | 2.64 | 1.97 | > 10 | 0.0166 | 0.248
